According to the NIST ThermoML archive (doi:10.1021/acs.jced.7b00783):
Numbers after ± are expanded uncertainties.

Conditions: Liquid, Ebulliometric method (Recirculating still)

| vapor or sublimation pressure (351.45 K) | SMILES | vapor or sublimation pressure (352.72 K) |
| --- | --- | --- |
| 101.3 ± 0.46 kPa | CCO [ethanol] | – |
| – | CCC(C)=O [butanone] | 101.3 ± 0.46 kPa |
